Data as given in article PMC12929930, “Conformational Trajectory of the Molecular Chameleon Grazoprevir From Formulation to Target‐Bound” (Chemistry (Weinheim an Der Bergstrasse, Germany), 2025).
Read-outs that look alike come from different tables or passages of the source. One block for each compound: values may come before it.

Tests used:
[1] = cited from earlier work; for SA 3D PSA variation between solution conformations / spread in Rgyr for the solution ensembles: solution ensembles
Source text: Grazoprevir (Figure 1a) is a second‐generation hepatitis C virus (HCV) nonstructural 3/4A (NS3/NS4A) protease inhibitor developed by Merck in 2012 and approved by the FDA in 2016 as part of an orally administered combination therapy with elbasvir. Like most NS3/NS4A protease inhibitors, grazoprevir is orally available despite its limited water solubility (Table S21). The potential chameleonicity of grazoprevir has not yet been structurally characterized. Determining the structures of bRo5 inhibitors like grazoprevir in various states is crucial for understanding their chame ... || For bRo5‐drugs, 3D descriptors such as the R gyr as a measure of size instead of molecular weight, and the SA 3D PSA instead of the number of hydrogen bond donors and acceptors, often provide a better view to explain their aqueous solubility and membrane permeability. Even though the exact values of the R gyr and SA 3D PSA for a single conformation might not be informative, they can give a perspective when compared for conformations between solvents or between similar compounds [6, 23]. In solution the SA 3D PSA varies by 79 Å^2 (Supporting information Figure S13) between the c ...

MCDCK cell monolayers [2] = conditions: comparison value quoted in Conclusions; not in the printed Table S21; cited from earlier work
Source text: This study presents a comprehensive analysis of a macrocyclic drug's conformational journey by experimental means; from the solid state, through solution environments, to the target‐bound state. […] By determining solution‐state ensembles of grazoprevir in both polar and apolar environments—mimicking extracellular and membrane‐like conditions—and comparing these to previously repo ...

MCDCK cell monolayers [3] = format: in vitro ADME
Source text: (§1) Solubility and Cell permeability
(§2) The thermodynamic aqueous solubility, LogD and cell permeability across MCDCK cell monolayers
(§3) Table S21. MCDCK permeability data and efflux ratios (ERs) for grazoprevir.
(§4) Solubility LogD7.4[b] PappAB (x10-6 ER[d]
[a] Determined in aqueous potassium phosphate buffer at pH 7.4. Values are means ± std from three repeats.
[b] Determined using a miniaturized shake-flask procedure. Values are means from three repeats.
[c] Papp AB: permeability in the apical-to-basolateral (AB) direction across MCDCK cell monolayers. Values are
means + std from three repeats.
[d] ER: efflux ratio (Papp BA/Papp AB).

[4] = format: physicochemical; conditions: pH 7.4
Source text: as §1, §2, §3
Solubility LogD7.4[b] PappAB (x10-6 ER[d] […]
[b] Determined using a miniaturized shake-flask procedure. Values are means from three repeats. […]

[5] = format: physicochemical; conditions: pH 7.4; remark: listed apart in the source
Source text: as §1, §2, §3, §4
[a] Determined in aqueous potassium phosphate buffer at pH 7.4. Values are means ± std from three repeats. […]

[6] = conformations assessed computationally

Structure (SMILES): C=C[C@@H]1C[C@]1(NC(=O)[C@@H]1C[C@@H](Oc2ncc(OC)c3ccc(Cl)cc23)CN1C(=O)[C@@H](NC(=O)OC(C)(C)C)C(C)(C)C)C(=O)NS(=O)(=O)C1CC1 [asunaprevir]
- SA 3D PSA variation between solution conformations [1]: 88 Å^2
- spread in Rgyr for the solution ensembles [1]: 1.22 Å

Structure (SMILES): COc1ccc2c(O[C@@H]3C[C@H]4C(=O)N[C@]5(C(=O)NS(=O)(=O)C6CC6)C[C@H]5/C=C\CCCCN(C)C(=O)[C@@H]4C3)cc(-c3nc(C(C)C)cs3)nc2c1C [simeprevir]
- SA 3D PSA variation between solution conformations [1]: 72 Å^2
- spread in Rgyr for the solution ensembles [1]: 1.11 Å
- passive membrane permeability (MCDCK cell monolayers [2]): 0.5 ×10⁻⁶ cm/s

Structure (SMILES): Cc1cnc(C(=O)N[C@H]2CCCCC/C=C\[C@@H]3C[C@@]3(C(=O)NS(=O)(=O)C3CC3)NC(=O)[C@@H]3C[C@@H](Oc4nc5ccccc5c5ccccc45)CN3C2=O)cn1 [paritaprevir]
- Rgyr range for the solution conformations (polar-to-apolar span) [1, 6]: 0.36 Å
- SA 3D PSA polar-to-apolar span [1, 6]: 76 Å^2

- ER (efflux ratio, Papp BA/Papp AB) (MCDCK cell monolayers [3]): 3.1
- PappAB (MCDCK cell monolayers [3]): 5.9 ± 0.89 x10-6 cm/s
- passive membrane permeability (MCDCK cell monolayers [3]): 5.9 ×10⁻⁶ cm/s
- LogD7.4 [4]: 3.4
- Solubility [5]: 12.9 ± 2.6 µM
Structure (SMILES): C=C[C@@H]1C[C@]1(NC(=O)[C@@H]1C[C@@H]2CN1C(=O)[C@H](C(C)(C)C)NC(=O)O[C@@H]1C[C@H]1CCCCCc1nc3ccc(OC)cc3nc1O2)C(=O)NS(=O)(=O)C1CC1.O [grazoprevir, Grazoprevir]
